Data: ChEMBL document CHEMBL1201862, “PubChem BioAssay data set” (2004)
Activity calls are given as the source filed them.

Key:
Cytochrome P450 2C19 = Cytochrome P450 2C19 (Homo sapiens, UniProt P33261); assay: Cytochrome panel assay with activity outcomes. Panel member name: p450-cyp2c19 Compounds with AC50 equal or less than 10 uM are considered active; format: functional; settings: read-out: AC50
Cytochrome P450 2D6 = Cytochrome P450 2D6 (Homo sapiens, UniProt P10635);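 note: CYP2D6 member of a cytochrome P450 panel assay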
Cytochrome P450 1A2 = target: T1, Cytochrome P450 1A2 (Homo sapiens, UniProt P05177);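 note: PubChem cytochrome P450 panel assay, CYP1A2 panel member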
T1 sequence (P05177 whole entry): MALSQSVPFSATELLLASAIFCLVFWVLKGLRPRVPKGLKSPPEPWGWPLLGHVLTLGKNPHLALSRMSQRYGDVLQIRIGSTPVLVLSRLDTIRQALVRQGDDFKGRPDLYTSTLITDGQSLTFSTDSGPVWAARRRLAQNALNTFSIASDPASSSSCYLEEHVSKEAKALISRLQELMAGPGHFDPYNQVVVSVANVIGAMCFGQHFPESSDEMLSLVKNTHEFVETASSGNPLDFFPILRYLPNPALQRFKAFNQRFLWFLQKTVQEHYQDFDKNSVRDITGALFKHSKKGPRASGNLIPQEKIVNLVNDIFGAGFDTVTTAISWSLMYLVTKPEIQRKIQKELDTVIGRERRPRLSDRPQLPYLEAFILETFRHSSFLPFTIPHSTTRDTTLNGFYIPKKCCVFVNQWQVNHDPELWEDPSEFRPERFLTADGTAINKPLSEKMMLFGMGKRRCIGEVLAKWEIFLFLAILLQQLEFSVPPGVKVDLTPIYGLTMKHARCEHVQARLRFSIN

Cytochrome P450 3A4 [1] = target: T2, Cytochrome P450 3A4 (Homo sapiens, UniProt P08684);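 note: CYP3A4 tested as one member of a cytochrome P450 panel screen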
Mu-type opioid receptor = Mu-type opioid receptor (Homo sapiens, UniProt P35372); assay: (§1) Counterscreen for agonists of heterodimerization of the mu 1 (OPRM1) and delta 1 (OPRD1) opioid receptors: Luminescence-based cell-based high throughput dose response assay to identify agonists of OPRM1 homodimerization.; format: functional
[2] = target: 5-hydroxytryptamine receptor 5A (Homo sapiens, UniProt P47898); assay: Counterscreen for agonists of OPRM1-OPRD1 heterodimerization: luminescence-based cell-based high throughput dose response assay to identify agonists of 5-hydroxytryptamine (serotonin) 5A receptor (HTR5A). [Related pubchem assays (depositor defined):AID504326, AID504355, AID504692, AID504904, AID504905]; format: functional
[3] = target: Delta-type opioid receptor (Homo sapiens, UniProt P41143); assay: as §1, with “of OPRD1” for “of OPRM1”, “homodimerization. [Related pubchem assays (depositor defined):AID504326, AID504355, AID504692, AID504904, AID504905]” for “homodimerization.”; format: functional
Escherichia coli = assay: microbe, parasite or virus in culture
HEK293 [4] = assay: NOD2 signaling inhibitors in MDP-stimulated cells, cell-based, uHTS, luminescence (AID 2001); format: functional; settings: Homo sapiens
[5] = inhibitors of firefly luciferase expression or activity, dose response, H4 neuroglioma cells, luminescence (AID 1990); format: functional, cell-based
HEK293 [6] = assay: cells; settings: Homo sapiens
HEK293 [7] = assay: cells; format: functional, cell-based; settings: Homo sapiens
Tumor necrosis factor = Tumor necrosis factor (Homo sapiens, UniProt P01375); assay: TNFa-triggered NF-kB activation inhibitors, SAR follow-up, cell-based, revised (AID 2337); format: functional
[8] = target: Nucleotide-binding oligomerization domain-containing protein 2 (Homo sapiens, UniProt Q9HC29); assay: NOD2 signaling inhibitors, cell-based, luminescence, uHTS, HEK293 (AID 1566); format: functional
[9] = Luminescence Cell-Based Dose Response HTS to Identify Inhibitors of 5'UTR Stem-Loop Driven Prion Protein mRNA Translation in H4 Neuroglioblastoma Cells. [Related pubchem assays: 1827 (Project Summary), 1813 (Primary HTS)]; format: functional
HEK293 [10] = assay: NOD1 signaling inhibitors, primary screen, cell-based, luminescence, uHTS (AID 1578); format: functional; settings: Homo sapiens
HEK293 [11] = assay: cells; format: functional, cell-based; settings: Homo sapiens; remark: listed apart in the source
[12] = inhibitors of SNCA 5'UTR-driven reporter translation, confirmation, H4 neuroglioma cells, luminescence (AID 1988); format: functional, cell-based
[13] = target: T3, Nucleotide-binding oligomerization domain-containing protein 1 (Homo sapiens, UniProt Q9Y239); assay: NOD1 signaling inhibitors, SAR follow-up, revised (AID 2333); format: functional
T3 sequence (Q9Y239 whole entry): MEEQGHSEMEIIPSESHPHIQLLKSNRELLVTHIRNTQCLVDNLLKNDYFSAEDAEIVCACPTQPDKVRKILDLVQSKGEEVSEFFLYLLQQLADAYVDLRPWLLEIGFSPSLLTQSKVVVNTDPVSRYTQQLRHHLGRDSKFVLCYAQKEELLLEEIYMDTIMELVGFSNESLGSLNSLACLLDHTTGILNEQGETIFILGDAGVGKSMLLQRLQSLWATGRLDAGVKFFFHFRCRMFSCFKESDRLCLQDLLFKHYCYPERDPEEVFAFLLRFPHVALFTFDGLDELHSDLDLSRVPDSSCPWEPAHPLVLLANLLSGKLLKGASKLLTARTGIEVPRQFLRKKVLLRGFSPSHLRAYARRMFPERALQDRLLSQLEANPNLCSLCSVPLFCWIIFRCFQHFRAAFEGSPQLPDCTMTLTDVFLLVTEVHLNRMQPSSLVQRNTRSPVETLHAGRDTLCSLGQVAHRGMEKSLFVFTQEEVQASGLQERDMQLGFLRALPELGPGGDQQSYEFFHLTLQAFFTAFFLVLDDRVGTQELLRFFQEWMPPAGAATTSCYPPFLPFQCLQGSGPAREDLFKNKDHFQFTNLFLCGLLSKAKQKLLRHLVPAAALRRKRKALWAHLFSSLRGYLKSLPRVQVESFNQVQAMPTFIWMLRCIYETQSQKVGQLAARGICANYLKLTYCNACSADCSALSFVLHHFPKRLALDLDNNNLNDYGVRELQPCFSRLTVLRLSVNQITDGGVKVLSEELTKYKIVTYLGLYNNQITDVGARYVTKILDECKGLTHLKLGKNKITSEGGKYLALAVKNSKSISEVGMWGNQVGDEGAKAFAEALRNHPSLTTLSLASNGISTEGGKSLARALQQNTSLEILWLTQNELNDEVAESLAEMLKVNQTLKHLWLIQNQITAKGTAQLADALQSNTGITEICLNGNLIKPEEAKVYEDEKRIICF

HEK293 [14] = assay: cells; format: functional, cell-based; settings: Homo sapiens; remark: listed apart in the source
Cytochrome P450 3A4 [15] = target: T2, Cytochrome P450 3A4; remark: listed apart in the source

T2 sequence (P08684 whole entry): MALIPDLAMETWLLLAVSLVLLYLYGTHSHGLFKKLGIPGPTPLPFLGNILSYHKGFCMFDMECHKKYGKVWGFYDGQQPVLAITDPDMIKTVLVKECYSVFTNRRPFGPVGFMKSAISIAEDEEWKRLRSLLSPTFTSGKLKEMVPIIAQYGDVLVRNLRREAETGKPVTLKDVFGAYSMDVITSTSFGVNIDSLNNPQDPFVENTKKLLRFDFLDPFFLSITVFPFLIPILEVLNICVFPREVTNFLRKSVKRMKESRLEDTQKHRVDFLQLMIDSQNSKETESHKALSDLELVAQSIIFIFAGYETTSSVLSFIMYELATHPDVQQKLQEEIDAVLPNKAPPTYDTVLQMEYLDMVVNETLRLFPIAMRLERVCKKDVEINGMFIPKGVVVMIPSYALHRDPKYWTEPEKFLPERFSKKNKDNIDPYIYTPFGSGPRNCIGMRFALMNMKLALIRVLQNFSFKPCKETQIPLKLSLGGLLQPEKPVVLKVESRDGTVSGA
Cytochrome P450 2D6, sequence (P10635 whole entry): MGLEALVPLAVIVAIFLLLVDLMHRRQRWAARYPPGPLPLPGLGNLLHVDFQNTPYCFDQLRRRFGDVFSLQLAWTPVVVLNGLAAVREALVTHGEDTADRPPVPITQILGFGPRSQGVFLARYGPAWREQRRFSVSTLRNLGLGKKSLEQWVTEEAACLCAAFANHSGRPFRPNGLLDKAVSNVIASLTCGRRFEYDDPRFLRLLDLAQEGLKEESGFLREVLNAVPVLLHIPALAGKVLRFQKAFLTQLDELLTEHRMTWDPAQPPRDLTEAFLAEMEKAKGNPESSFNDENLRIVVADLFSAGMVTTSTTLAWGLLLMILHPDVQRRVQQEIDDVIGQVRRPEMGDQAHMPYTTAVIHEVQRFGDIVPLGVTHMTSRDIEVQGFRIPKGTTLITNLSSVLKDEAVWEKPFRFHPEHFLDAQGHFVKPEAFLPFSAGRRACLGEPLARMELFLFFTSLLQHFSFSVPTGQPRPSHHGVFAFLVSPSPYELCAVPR
Mu-type opioid receptor, sequence (P35372 whole entry): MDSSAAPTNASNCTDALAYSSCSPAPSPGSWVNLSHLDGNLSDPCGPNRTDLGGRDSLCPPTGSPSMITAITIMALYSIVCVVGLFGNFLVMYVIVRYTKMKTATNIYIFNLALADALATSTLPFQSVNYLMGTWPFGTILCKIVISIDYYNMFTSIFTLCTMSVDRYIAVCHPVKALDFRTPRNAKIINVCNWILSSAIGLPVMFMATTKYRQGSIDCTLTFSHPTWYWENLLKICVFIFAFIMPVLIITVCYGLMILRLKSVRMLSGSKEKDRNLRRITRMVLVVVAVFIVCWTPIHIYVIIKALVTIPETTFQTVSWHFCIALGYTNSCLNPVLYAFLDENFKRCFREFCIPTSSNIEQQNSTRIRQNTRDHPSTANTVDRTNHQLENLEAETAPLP
Delta-type opioid receptor, sequence (P41143 whole entry): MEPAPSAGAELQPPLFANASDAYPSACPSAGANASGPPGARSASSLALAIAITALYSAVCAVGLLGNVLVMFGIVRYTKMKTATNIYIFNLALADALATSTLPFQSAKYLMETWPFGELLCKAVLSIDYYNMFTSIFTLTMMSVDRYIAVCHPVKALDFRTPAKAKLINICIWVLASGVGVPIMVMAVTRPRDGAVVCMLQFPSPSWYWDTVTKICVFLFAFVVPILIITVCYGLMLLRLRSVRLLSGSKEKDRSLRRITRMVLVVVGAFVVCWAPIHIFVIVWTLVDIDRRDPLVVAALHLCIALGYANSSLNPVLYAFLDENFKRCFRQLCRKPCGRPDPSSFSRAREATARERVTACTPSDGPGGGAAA
5-hydroxytryptamine receptor 5A, sequence (P47898 whole entry): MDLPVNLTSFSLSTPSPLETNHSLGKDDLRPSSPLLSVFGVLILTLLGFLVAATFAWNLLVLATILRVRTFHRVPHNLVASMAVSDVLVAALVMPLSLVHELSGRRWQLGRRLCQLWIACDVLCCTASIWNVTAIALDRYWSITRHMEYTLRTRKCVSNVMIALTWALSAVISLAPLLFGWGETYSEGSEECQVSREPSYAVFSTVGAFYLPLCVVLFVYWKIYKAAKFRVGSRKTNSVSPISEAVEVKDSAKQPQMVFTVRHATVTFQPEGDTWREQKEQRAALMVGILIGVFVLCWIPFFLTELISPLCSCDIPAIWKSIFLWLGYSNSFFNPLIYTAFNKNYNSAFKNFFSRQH
Tumor necrosis factor, sequence (P01375 whole entry, the tested form may be a part): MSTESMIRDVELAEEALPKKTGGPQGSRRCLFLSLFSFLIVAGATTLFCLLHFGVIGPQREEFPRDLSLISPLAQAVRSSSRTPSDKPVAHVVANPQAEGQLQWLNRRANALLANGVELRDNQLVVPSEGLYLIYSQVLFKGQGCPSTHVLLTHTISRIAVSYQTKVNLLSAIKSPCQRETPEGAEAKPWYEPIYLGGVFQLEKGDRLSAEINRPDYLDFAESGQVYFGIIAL
Cytochrome P450 2C19, sequence (P33261 whole entry): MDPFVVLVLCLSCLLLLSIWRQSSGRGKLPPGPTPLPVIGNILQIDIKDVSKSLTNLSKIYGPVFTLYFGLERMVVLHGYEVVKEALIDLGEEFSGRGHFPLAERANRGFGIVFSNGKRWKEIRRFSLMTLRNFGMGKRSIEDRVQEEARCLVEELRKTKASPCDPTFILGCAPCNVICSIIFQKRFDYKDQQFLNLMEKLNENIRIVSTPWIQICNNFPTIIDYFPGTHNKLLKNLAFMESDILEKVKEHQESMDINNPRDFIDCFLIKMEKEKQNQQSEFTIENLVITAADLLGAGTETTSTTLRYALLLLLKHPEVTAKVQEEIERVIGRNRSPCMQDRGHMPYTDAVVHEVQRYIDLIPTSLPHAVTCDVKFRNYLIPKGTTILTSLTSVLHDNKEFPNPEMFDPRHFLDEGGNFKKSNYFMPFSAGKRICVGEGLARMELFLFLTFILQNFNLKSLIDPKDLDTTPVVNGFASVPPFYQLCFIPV
Nucleotide-binding oligomerization domain-containing protein 2, sequence (Q9HC29 whole entry, the tested form may be a part): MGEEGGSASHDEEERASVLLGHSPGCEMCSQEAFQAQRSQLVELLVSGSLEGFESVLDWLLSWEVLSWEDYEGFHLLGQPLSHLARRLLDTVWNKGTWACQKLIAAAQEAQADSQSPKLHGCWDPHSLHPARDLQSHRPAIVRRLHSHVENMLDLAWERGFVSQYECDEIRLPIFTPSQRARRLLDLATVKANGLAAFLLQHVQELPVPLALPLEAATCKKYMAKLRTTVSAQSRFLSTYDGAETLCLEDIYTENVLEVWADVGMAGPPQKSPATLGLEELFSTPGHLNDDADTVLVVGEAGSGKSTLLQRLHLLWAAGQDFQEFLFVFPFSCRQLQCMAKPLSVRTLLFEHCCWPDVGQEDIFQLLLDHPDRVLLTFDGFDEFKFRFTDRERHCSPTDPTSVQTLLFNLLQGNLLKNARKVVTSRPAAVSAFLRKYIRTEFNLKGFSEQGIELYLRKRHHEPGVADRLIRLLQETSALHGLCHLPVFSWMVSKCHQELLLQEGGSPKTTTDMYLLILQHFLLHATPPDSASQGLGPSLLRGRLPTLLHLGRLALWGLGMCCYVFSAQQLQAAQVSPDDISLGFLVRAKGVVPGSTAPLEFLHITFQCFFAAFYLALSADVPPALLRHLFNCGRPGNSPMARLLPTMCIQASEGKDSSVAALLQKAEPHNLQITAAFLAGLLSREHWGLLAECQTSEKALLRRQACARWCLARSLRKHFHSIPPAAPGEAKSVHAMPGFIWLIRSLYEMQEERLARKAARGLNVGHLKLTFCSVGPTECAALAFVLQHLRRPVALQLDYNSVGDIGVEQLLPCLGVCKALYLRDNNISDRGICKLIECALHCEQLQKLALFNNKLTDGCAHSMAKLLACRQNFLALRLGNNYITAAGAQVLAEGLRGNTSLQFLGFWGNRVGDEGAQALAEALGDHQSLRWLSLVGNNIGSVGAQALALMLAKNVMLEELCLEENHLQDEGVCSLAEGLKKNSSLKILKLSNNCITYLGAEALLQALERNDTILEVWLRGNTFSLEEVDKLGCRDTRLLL

CC(C)n1nnc2ccccc2c1=O
AC50 (Cytochrome P450 2C19): 39.8 µM (inconclusive)
AC50 (Cytochrome P450 2D6): inconclusive
AC50 (Cytochrome P450 1A2): 11.2 µM (inconclusive)
AC50 (Cytochrome P450 3A4 [1]): inconclusive

CN(C)C(CNC(=O)c1ccc(Br)cc1)c1ccco1 (centres undefined)
EC50 (Mu-type opioid receptor): > 92.5 µM (inactive)
EC50 [2]: > 92.5 µM (inactive)
EC50 [3]: > 92.5 µM (inactive)

CCOc1ccc(Nc2nc(O)c3c(n2)CCCC3)cc1
AC50 (Escherichia coli): 31.7 µM (active)

COc1cc(C(=O)Nc2sc3c(c2C(=O)O)CCC(C)C3)cc(OC)c1OC (centres undefined)
IC50 (HEK293 [4]): 9.76 µM (active)
EC50 [5]: > 120 µM (not active)
IC50 (HEK293 [6]): > 20 µM (inactive)
IC50 (HEK293 [7]): > 20 µM (inactive)
IC50 (Tumor necrosis factor): 7.41 µM (active)
EC50 [8]: 2.24 µM (active)
EC50 [9]: > 120 µM (not active)
EC50 (HEK293 [10]): 4.16 µM (active)
IC50 (HEK293 [11]): > 20 µM (inactive)
EC50 [12]: 12.8 µM (active)
IC50 [13]: 5.19 µM (active)
IC50 (HEK293 [14]): > 20 µM (inactive)

CCOc1cc(CNCCO)c(Cl)cc1OCC(=O)NCCc1ccccc1
AC50 (Cytochrome P450 2D6): inconclusive

COC(=O)c1cc(OC)c(OC)cc1N=C(S)N1CCN(C)CC1
AC50 (Cytochrome P450 3A4 [15]): 14.1 µM (inconclusive)
AC50 (Cytochrome P450 2D6): inconclusive
AC50 (Cytochrome P450 1A2): 11.2 µM (inconclusive)

Cc1cccc(NC(=S)NC(=O)CCc2ccccc2)c1
EC50 (Mu-type opioid receptor): > 92.5 µM (inactive)
EC50 [2]: > 92.5 µM (inactive)
AC50 (Cytochrome P450 3A4 [15]): 25.1 µM (inconclusive)
EC50 [3]: > 92.5 µM (inactive)

COC(=O)c1ccc(CNC(=O)C2CCC(=O)N(Cc3ccccn3)C2)cc1 (centres undefined)
AC50 (Escherichia coli): 131 µM (active)
